Measurements as given in patent US20100016547A1, “Glycosilated Peptide and Medicine Comprising It as an Effective Ingredient” (priority 2005, published 2010).

Experiments:
GLP-1 receptor [1] = molecular target: T1, GLP-1 receptor (Homo sapiens, UniProt P43220)
Protocol: After being incubated at room temperature for 2 hours, the solution was filtered through a unifilter 96GF/C plate (Perkin-Elmer) pretreated with 1% polyethylenimine containing 0.5% BSA, washed with 25 mM HEPES buffer solution (pH 7.4) containing 0.5% BSA, and radioactivity remained on the filter was measured by a gamma counter (Top Counter; Perkin-Elmer).

GLP-1 receptor [2] = molecular target: T1, GLP-1 receptor; test: Assay for production of cAMP
Protocol: Assay for Production of cAMP
After stirring at room temperature for an hour, the cells were lysed with Triton X-100 (final concentration: 1%).
Quantity of cAMP was determined using cAMP Femtomolar Kit (CIS Bio International). The reaction solution (1 μL) was moved to a new 384-well plate and diluted by adding 9 μL of dilution buffer. Next, each 5 μL of cAMP-XL665 solution and anti-cAMP cryptate solution of the Kit was added, the mixture was incubated at room temperature for an hour, and time-resolved fluorescence was measured using RUBYstar (BMG LABTECH).

T1 sequence (P43220 24-463, species assumed): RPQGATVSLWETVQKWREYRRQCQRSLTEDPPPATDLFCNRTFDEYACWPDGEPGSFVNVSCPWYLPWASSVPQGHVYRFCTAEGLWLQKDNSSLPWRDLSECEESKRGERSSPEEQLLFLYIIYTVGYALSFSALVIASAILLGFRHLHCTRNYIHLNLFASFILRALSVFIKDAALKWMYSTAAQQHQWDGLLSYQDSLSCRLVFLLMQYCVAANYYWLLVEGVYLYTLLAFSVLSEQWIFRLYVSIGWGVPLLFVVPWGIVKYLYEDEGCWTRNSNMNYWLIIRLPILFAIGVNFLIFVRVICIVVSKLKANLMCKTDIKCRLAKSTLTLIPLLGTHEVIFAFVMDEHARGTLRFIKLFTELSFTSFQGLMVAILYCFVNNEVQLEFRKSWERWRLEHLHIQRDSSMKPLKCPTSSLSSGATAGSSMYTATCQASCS

Molecule	IC50 (GLP-1 receptor [1]) [nM]	EC50 (GLP-1 receptor [2]) [nM]
CC[C@H](C)[C@H](NC(=O)[C@H](Cc1ccccc1)NC(=O)[C@H](CCC(=O)O)NC(=O)[C@H](CCCCN)NC(=O)[C@H](C)NC(=O)[C@H](C)NC(=O)[C@H](CCC(N)=O)NC(=O)CNC(=O)[C@H](CCC(=O)O)NC(=O)[C@H](CC(C)C)NC(=O)[C@H](Cc1ccc(O)cc1)NC(=O)[C@H](CO)NC(=O)[C@H](CO)NC(=O)[C@@H](NC(=O)[C@H](CC(=O)O)NC(=O)[C@H](CO)NC(=O)[C@@H](NC(=O)[C@H](Cc1ccccc1)NC(=O)[C@@H](NC(=O)CNC(=O)[C@H](CCC(=O)O)NC(=O)[C@H](C)NC(=O)[C@@H](N)Cc1c[nH]cn1)[C@@H](C)O)[C@@H](C)O)C(C)C)C(=O)N[C@@H](C)C(=O)N[C@@H](Cc1c[nH]c2ccccc12)C(=O)N[C@@H](CC(C)C)C(=O)N[C@H](C(=O)N[C@@H](CC(=O)N[C@@H]1O[C@H](CO)[C@@H](O[C@@H]2O[C@H](CO)[C@H](O)[C@H](O)[C@H]2O)[C@H](O)[C@H]1NC(C)=O)C(=O)NCC(=O)N[C@@H](CCCNC(=N)N)C(N)=O)C(C)C [GL34NL]	0.76	0.11
CC[C@H](C)[C@H](NC(=O)[C@H](Cc1ccccc1)NC(=O)[C@H](CCC(=O)O)NC(=O)[C@H](CCCCN)NC(=O)[C@H](C)NC(=O)[C@H](C)NC(=O)[C@H](CCC(N)=O)NC(=O)CNC(=O)[C@H](CCC(=O)O)NC(=O)[C@H](CC(C)C)NC(=O)[C@H](Cc1ccc(O)cc1)NC(=O)[C@H](CO)NC(=O)[C@H](CO)NC(=O)[C@@H](NC(=O)[C@H](CC(=O)O)NC(=O)[C@H](CO)NC(=O)[C@@H](NC(=O)[C@H](Cc1ccccc1)NC(=O)[C@@H](NC(=O)CNC(=O)[C@H](CCC(=O)O)NC(=O)[C@H](C)NC(=O)[C@@H](N)Cc1c[nH]cn1)[C@@H](C)O)[C@@H](C)O)C(C)C)C(=O)N[C@@H](C)C(=O)N[C@@H](Cc1c[nH]c2ccccc12)C(=O)N[C@@H](CC(C)C)C(=O)N[C@H](C(=O)N[C@@H](CC(N)=O)C(=O)NCC(=O)N[C@@H](CCCNC(=N)N)C(N)=O)C(C)C [GL34N]	1	0.11
CC[C@H](C)[C@H](NC(=O)[C@H](Cc1ccccc1)NC(=O)[C@H](CCC(=O)O)NC(=O)[C@H](CC(=O)N[C@@H]1O[C@H](CO)[C@@H](O[C@@H]2O[C@H](CO[C@]3(C(=O)O)C[C@H](O)[C@@H](NC(C)=O)[C@H]([C@H](O)[C@H](O)CO)O3)[C@H](O)[C@H](O)[C@H]2O)[C@H](O)[C@H]1NC(C)=O)NC(=O)[C@H](C)NC(=O)[C@H](C)NC(=O)[C@H](CCC(N)=O)NC(=O)CNC(=O)[C@H](CCC(=O)O)NC(=O)[C@H](CC(C)C)NC(=O)[C@H](Cc1ccc(O)cc1)NC(=O)[C@H](CO)NC(=O)[C@H](CO)NC(=O)[C@@H](NC(=O)[C@H](CC(=O)O)NC(=O)[C@H](CO)NC(=O)[C@@H](NC(=O)[C@H](Cc1ccccc1)NC(=O)[C@@H](NC(=O)CNC(=O)[C@H](CCC(=O)O)NC(=O)[C@H](C)NC(=O)[C@@H](N)Cc1c[nH]cn1)[C@@H](C)O)[C@@H](C)O)C(C)C)C(=O)N[C@@H](C)C(=O)N[C@@H](Cc1c[nH]c2ccccc12)C(=O)N[C@@H](CC(C)C)C(=O)N[C@H](C(=O)N[C@@H](CCCCN)C(=O)NCC(=O)N[C@@H](CCCNC(=N)N)C(=O)N[C@@H](CC(=O)N[C@@H]1O[C@H](CO)[C@@H](O[C@@H]2O[C@H](CO[C@]3(C(=O)O)C[C@H](O)[C@@H](NC(C)=O)[C@H]([C@H](O)[C@H](O)CO)O3)[C@H](O)[C@H](O)[C@H]2O)[C@H](O)[C@H]1NC(C)=O)C(N)=O)C(C)C [GL2637NS6]	21	1
CC[C@H](C)[C@H](NC(=O)[C@H](Cc1ccccc1)NC(=O)[C@H](CCC(=O)O)NC(=O)[C@H](CCCCN)NC(=O)[C@H](C)NC(=O)[C@H](C)NC(=O)[C@H](CCC(N)=O)NC(=O)CNC(=O)[C@H](CCC(=O)O)NC(=O)[C@H](CC(C)C)NC(=O)[C@H](Cc1ccc(O)cc1)NC(=O)[C@H](CO)NC(=O)[C@H](CO)NC(=O)[C@@H](NC(=O)[C@H](CC(=O)O)NC(=O)[C@H](CO)NC(=O)[C@@H](NC(=O)[C@H](Cc1ccccc1)NC(=O)[C@@H](NC(=O)CNC(=O)[C@H](CCC(=O)O)NC(=O)[C@H](C)NC(=O)[C@@H](N)Cc1c[nH]cn1)[C@@H](C)O)[C@@H](C)O)C(C)C)C(=O)N[C@@H](C)C(=O)N[C@@H](Cc1c[nH]c2ccccc12)C(=O)N[C@@H](CC(C)C)C(=O)N[C@H](C(=O)N[C@@H](CSCC(=O)N[C@@H](CC(=O)N[C@@H]1O[C@H](CO)[C@@H](O[C@@H]2O[C@H](CO)[C@@H](O[C@@H]3O[C@H](CO[C@H]4O[C@H](CO)[C@@H](O)[C@H](O)[C@@H]4O[C@@H]4O[C@H](CO)[C@@H](O[C@@H]5O[C@H](CO[C@]6(C(=O)O)C[C@H](O)[C@@H](NC(C)=O)[C@H]([C@H](O)[C@H](O)CO)O6)[C@H](O)[C@H](O)[C@H]5O)[C@H](O)[C@H]4NC(C)=O)[C@@H](O)[C@H](O[C@H]4O[C@H](CO)[C@@H](O)[C@H](O)[C@@H]4O[C@@H]4O[C@H](CO)[C@@H](O[C@@H]5O[C@H](CO[C@]6(C(=O)O)C[C@H](O)[C@@H](NC(C)=O)[C@H]([C@H](O)[C@H](O)CO)O6)[C@H](O)[C@H](O)[C@H]5O)[C@H](O)[C@H]4NC(C)=O)[C@@H]3O)[C@H](O)[C@H]2NC(C)=O)[C@H](O)[C@H]1NC(C)=O)C(=O)O)C(=O)NCC(=O)N[C@@H](CCCNC(=N)N)C(=O)N[C@@H](CSCC(=O)N[C@@H](CC(=O)N[C@@H]1O[C@H](CO)[C@@H](O[C@@H]2O[C@H](CO)[C@@H](O[C@@H]3O[C@H](CO[C@H]4O[C@H](CO)[C@@H](O)[C@H](O)[C@@H]4O[C@@H]4O[C@H](CO)[C@@H](O[C@@H]5O[C@H](CO[C@]6(C(=O)O)C[C@H](O)[C@@H](NC(C)=O)[C@H]([C@H](O)[C@H](O)CO)O6)[C@H](O)[C@H](O)[C@H]5O)[C@H](O)[C@H]4NC(C)=O)[C@@H](O)[C@H](O[C@H]4O[C@H](CO)[C@@H](O)[C@H](O)[C@@H]4O[C@@H]4O[C@H](CO)[C@@H](O[C@@H]5O[C@H](CO[C@]6(C(=O)O)C[C@H](O)[C@@H](NC(C)=O)[C@H]([C@H](O)[C@H](O)CO)O6)[C@H](O)[C@H](O)[C@H]5O)[C@H](O)[C@H]4NC(C)=O)[C@@H]3O)[C@H](O)[C@H]2NC(C)=O)[C@H](O)[C@H]1NC(C)=O)C(=O)O)C(N)=O)C(C)C [GL3437CE1]	30	4.1
CC[C@H](C)[C@H](NC(=O)[C@H](Cc1ccccc1)NC(=O)[C@H](CCC(=O)O)NC(=O)[C@H](CCCCN)NC(=O)[C@H](C)NC(=O)[C@H](C)NC(=O)[C@H](CCC(N)=O)NC(=O)CNC(=O)[C@H](CCC(=O)O)NC(=O)[C@H](CC(C)C)NC(=O)[C@H](Cc1ccc(O)cc1)NC(=O)[C@H](CO)NC(=O)[C@H](CO)NC(=O)[C@@H](NC(=O)[C@H](CC(=O)O)NC(=O)[C@H](CO)NC(=O)[C@@H](NC(=O)[C@H](Cc1ccccc1)NC(=O)[C@@H](NC(=O)CNC(=O)[C@H](CCC(=O)O)NC(=O)[C@H](C)NC(=O)[C@@H](N)Cc1c[nH]cn1)[C@@H](C)O)[C@@H](C)O)C(C)C)C(=O)N[C@@H](C)C(=O)N[C@@H](Cc1c[nH]c2ccccc12)C(=O)N[C@@H](CC(C)C)C(=O)N[C@H](C(=O)N[C@@H](CC(=O)N[C@@H]1O[C@H](CO)[C@@H](O)[C@H](O)[C@H]1NC(C)=O)C(=O)NCC(=O)N[C@@H](CCCNC(=N)N)C(=O)N[C@@H](CC(=O)N[C@@H]1O[C@H](CO)[C@@H](O)[C@H](O)[C@H]1NC(C)=O)C(N)=O)C(C)C [GL3437NG]	0.9	0.11
CC[C@H](C)[C@H](NC(=O)[C@H](Cc1ccccc1)NC(=O)[C@H](CCC(=O)O)NC(=O)[C@H](CCCCN)NC(=O)[C@H](C)NC(=O)[C@H](C)NC(=O)[C@H](CCC(N)=O)NC(=O)CNC(=O)[C@H](CCC(=O)O)NC(=O)[C@H](CC(C)C)NC(=O)[C@H](Cc1ccc(O)cc1)NC(=O)[C@H](CO)NC(=O)[C@H](CO)NC(=O)[C@@H](NC(=O)[C@H](CC(=O)O)NC(=O)[C@H](CO)NC(=O)[C@@H](NC(=O)[C@H](Cc1ccccc1)NC(=O)[C@@H](NC(=O)CNC(=O)[C@H](CCC(=O)O)NC(=O)[C@H](C)NC(=O)[C@@H](N)Cc1c[nH]cn1)[C@@H](C)O)[C@@H](C)O)C(C)C)C(=O)N[C@@H](C)C(=O)N[C@@H](Cc1c[nH]c2ccccc12)C(=O)N[C@@H](CC(C)C)C(=O)N[C@H](C(=O)N[C@@H](CC(=O)N[C@@H]1O[C@H](CO)[C@@H](O[C@@H]2O[C@H](CO[C@]3(C(=O)O)C[C@H](O)[C@@H](NC(C)=O)[C@H]([C@H](O)[C@H](O)CO)O3)[C@H](O)[C@H](O)[C@H]2O)[C@H](O)[C@H]1NC(C)=O)C(=O)NCC(=O)N[C@@H](CCCNC(=N)N)C(=O)N[C@@H](CC(=O)N[C@@H]1O[C@H](CO)[C@@H](O[C@@H]2O[C@H](CO[C@]3(C(=O)O)C[C@H](O)[C@@H](NC(C)=O)[C@H]([C@H](O)[C@H](O)CO)O3)[C@H](O)[C@H](O)[C@H]2O)[C@H](O)[C@H]1NC(C)=O)C(N)=O)C(C)C [GL3437NS6]	3	0.2
H-HAEGTFTSDVSSNLEGQAAKEFIAWLVKGR-NH2 [GL19N]	11	0.92
